Source: publication PMC3335879, “Selective Inhibitors of Protozoan Protein N-myristoyltransferases as Starting Points for Tropical Disease Medicinal Chemistry Programs” (PLoS Neglected Tropical Diseases, 2012)
Like-named read-outs stand apart in the source and are kept apart here.

Experiments:
[1] = target: T1, HsNMT1 (Homo sapiens, UniProt P30419); assay: Human NMT1 scintillation proximity dose-response assay; type: biochemical; conditions: Table 2; single determination; read-out: Hs1 IC50
T1 construct: made in house
T1 sequence (P30419 1-496): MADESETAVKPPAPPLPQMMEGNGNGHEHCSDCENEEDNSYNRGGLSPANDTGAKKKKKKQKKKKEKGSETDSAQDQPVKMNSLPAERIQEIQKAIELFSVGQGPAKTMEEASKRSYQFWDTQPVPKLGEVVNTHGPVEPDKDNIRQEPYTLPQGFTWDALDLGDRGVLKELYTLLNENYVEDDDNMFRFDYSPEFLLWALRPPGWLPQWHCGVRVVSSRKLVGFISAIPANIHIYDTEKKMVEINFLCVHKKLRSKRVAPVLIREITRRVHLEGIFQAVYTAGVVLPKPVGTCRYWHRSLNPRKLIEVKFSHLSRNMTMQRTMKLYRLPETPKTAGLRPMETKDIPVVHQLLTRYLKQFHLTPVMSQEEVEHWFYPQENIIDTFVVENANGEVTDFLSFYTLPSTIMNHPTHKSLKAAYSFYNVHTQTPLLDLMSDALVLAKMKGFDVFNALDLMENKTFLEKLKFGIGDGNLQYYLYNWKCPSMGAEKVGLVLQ

[2] = target: T2, HsNMT2 (Homo sapiens, UniProt O60551); assay: Human NMT2 scintillation proximity dose-response assay; type: biochemical; conditions: Table 2; single determination; read-out: Hs2 IC50
T2 construct: made in house
T2 sequence (O60551 1-498): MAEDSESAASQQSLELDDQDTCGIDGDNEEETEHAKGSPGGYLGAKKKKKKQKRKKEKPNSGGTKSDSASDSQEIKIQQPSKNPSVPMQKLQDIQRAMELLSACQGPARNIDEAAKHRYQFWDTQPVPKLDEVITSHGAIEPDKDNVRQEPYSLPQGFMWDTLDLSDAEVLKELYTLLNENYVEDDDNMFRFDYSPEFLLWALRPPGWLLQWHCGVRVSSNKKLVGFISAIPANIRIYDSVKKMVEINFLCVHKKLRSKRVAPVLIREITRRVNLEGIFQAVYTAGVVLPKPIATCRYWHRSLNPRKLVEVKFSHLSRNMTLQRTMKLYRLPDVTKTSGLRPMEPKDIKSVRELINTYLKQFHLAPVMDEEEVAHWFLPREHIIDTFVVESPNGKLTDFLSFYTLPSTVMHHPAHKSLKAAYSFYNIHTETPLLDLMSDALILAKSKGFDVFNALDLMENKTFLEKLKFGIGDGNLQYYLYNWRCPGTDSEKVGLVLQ

[3] = target: L. donovani NMT (Leishmania donovani, UniProt D0AB09); assay: biochemical; conditions: for Ldon LE: ligand efficiency calculated from Ldon NMT IC50
Chain of L. donovani NMT (D0AB09 entry or part of it): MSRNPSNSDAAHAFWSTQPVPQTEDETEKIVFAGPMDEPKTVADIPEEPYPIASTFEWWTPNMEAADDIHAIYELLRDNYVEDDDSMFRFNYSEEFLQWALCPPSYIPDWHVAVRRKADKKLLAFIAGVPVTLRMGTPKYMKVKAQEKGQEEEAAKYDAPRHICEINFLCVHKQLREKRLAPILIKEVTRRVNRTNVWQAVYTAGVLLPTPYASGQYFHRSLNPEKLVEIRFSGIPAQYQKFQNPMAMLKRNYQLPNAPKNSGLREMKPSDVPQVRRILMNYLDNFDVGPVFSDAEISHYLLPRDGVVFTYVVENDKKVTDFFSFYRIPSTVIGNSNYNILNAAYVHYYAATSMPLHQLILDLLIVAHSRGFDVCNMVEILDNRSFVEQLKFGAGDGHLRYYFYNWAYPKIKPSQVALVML
Procedure: Recombinant P. falciparum (Swiss-Prot Q81LW6) and L. donovani NMTs (EMBL accession number FN555136) were produced at the University of York, using established protocols. An assay format based on scintillation proximity technology to monitor enzyme activity was used as previously described, [30].
The Pfizer Global Diverse Representative Set consisting of 150,000 compounds was screened at 20 µM final assay concentration. Assay plates were prepared by dispensing 0.1 µL of compound dissolved in DMSO using the Vario system (Cybio) into white 384-well plates (Greiner Bio-One).
(§1) The reaction was initiated by adding 10 µL of the substrate mixture to each well containing the pre-incubated enzyme/compound mixture, and allowed to proceed at RT for 80 min. The reaction was quenched by the addition 20 µl of stop solution to each well. Stop solution consisted of 0.75 M MgCl2 (Sigma), 0.1 M phosphoric acid (Sigma) and 1 mg/ml of streptavidin-coated polystyrene SPA beads (Perkin-Elmer). Plates were sealed using topseals (Perkin-Elmer) and left overnight to allow the bead solution to settle. Radioactive counts were measured with an integration time of 300 sec per plate using the Leadseeker Generation 4 plate reader (GE Healthcare). Each plate included a positive control of 1 µM final assay concentration of DDD85646 [22] and 1% DMSO as a negative control. […] The data were analysed using Pfizer SIGHTS software and visualised using Spotfire software (TIBCO).

[4] = target: T3, T brucei NMT (Trypanosoma brucei brucei, UniProt Q388H8); assay: T. brucei NMT scintillation proximity dose-response assay; type: biochemical
T3 construct: made in house
T3 sequence (Q388H8 1-446): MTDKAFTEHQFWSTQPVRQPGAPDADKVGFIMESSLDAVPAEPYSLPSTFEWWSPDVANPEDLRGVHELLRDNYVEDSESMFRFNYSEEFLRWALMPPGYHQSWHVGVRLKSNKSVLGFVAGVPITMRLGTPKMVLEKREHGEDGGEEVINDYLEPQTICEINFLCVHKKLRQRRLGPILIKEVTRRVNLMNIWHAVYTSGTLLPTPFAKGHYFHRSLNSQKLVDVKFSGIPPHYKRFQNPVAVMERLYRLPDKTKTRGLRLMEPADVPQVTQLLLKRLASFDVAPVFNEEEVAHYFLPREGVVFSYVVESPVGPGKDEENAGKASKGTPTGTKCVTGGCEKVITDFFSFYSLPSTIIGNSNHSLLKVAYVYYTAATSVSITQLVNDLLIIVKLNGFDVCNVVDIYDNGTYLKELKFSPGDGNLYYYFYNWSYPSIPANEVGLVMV

[5] = target: T4, P. falciparum NMT (Plasmodium falciparum, UniProt Q8ILW6); assay: biochemical; conditions: for Pfal LE: ligand efficiency calculated from Pfal NMT IC50; for Pfal/Ldon Sel: selectivity for Pfal NMT over Ldon NMT derived from IC50 values
T4 construct: made in house
T4 sequence (Q8ILW6 1-410): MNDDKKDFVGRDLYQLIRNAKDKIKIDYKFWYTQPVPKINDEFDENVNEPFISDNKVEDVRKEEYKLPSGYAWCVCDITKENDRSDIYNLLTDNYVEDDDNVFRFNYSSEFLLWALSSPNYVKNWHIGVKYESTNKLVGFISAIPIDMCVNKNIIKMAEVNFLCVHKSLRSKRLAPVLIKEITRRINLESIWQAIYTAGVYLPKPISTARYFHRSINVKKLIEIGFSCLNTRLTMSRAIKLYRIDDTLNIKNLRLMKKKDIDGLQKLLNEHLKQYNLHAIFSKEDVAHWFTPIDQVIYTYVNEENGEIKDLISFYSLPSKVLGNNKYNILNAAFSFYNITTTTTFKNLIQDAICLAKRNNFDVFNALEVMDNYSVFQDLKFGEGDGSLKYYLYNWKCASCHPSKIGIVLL
Procedure: Recombinant P. falciparum (Swiss-Prot Q81LW6) and L. donovani NMTs (EMBL accession number FN555136) were produced at the University of York, using established protocols. An assay format based on scintillation proximity technology to monitor enzyme activity was used as previously described, [30]. […]
as §1

[6] = Table 1, mean of 3 separate experiments, top concentration 80 µM, read-out: Ldon IC50
[7] = Table 2, mean of 3 determinations, read-out: Ldon IC50
[8] = Table 2, single determination, read-out: Tb IC50
[9] = Table 1, mean of 3 separate experiments, top concentration 80 µM, read-out: Pfal IC50
[10] = Table 2, mean of 3 determinations, read-out: Pfal IC50
[11] = Ldon IC50, Table 1, mean of 3 separate experiments, top concentration 80 µM
[12] = Ldon IC50, Table 2, mean of 3 determinations

SMILES	IC50 [1]	IC50 [2]	IC50 [3, 6]	IC50 [3, 7]	IC50 [4, 8]	IC50 [5, 9]	IC50 [5, 10]	Pfal LE [5]	Pfal/Ldon Sel [5]	Ldon LE [3]	IC50 [3, 11]	IC50 [3, 12]	IC50 [4]	IC50 [5]
CNCC(=O)N1CC[C@@H](NC(=O)c2ccccc2C(F)(F)F)C1 [CP-854190]	0.57 µM	1.59 µM	38.7 µM	38.7 µM	> 80 µM	1.72 µM	1.72 µM	0.34	22.5	–	–	–	–	–
Cc1cc2nc(N(C)C3CCN(C)CC3)nc(N(C)CCC#N)c2s1 [PF-00349412]	9 µM	11.5 µM	–	–	–	–	–	–	–	0.34	0.482 µM	0.48 µM	56.2 µM	39.6 µM
Cn1c(CN2CCC(c3cc(F)cc(F)c3)CC2)nc2cc(Cl)ccc21 [PF-03665853]	0.51 µM	0.56 µM	–	–	35.4 µM	0.91 µM	0.91 µM	0.32	>88	–	> 80 µM	> 80 µM	–	–

Further lines, with some results ahead:

IC50 [1]	IC50 [2]	IC50 [3, 6]	IC50 [3, 7]	IC50 [4, 8]	IC50 [5, 9]	IC50 [5, 10]	Pfal LE [5]	Pfal/Ldon Sel [5]	Ldon LE [3]	SMILES	IC50 [3, 11]	IC50 [3, 12]	IC50 [4]	IC50 [5]
36.1 µM	26.7 µM	0.158 µM	0.16 µM	> 80 µM	> 80 µM	> 80 µM	–	–	0.29	c1cncc(CCNCc2cccc(-c3cccc(CN4CCc5ncsc5C4)c3)c2)c1 [PF-00075634]	–	–	–	–
5.2 µM	14.7 µM	0.093 µM	0.093 µM	1.5 µM	71.9 µM	71.9 µM	–	–	0.35	NC(CC(=O)N1CC(CO)C(c2ccc(Cl)cc2)C1)Cc1ccc(Cl)cc1 (centres unmarked) [PF-03402623]	–	–	–	–
70 µM	76 µM	72 µM	72 µM	> 80 µM	0.482 µM	0.48 µM	0.31	150	–	Cc1cnc(CNC(=O)C2CN(c3nc(NCCN(C)C)ncc3Cl)C2)cn1 [PF-03531814]	–	–	–	–
